Measurements: a melting point compilation (Tetko et al.; mined from patent text by program, amines drawn as free bases though some values may be those of a salt)

| Compound | melting point [°C] |
| --- | --- |
| CC1CCc2c3c(cc4ccccc24)C(=O)C(C(=O)O)CN31 (configuration not stated) | 270 to 273 |
| CCCCc1ncc(/C=C(/C(=O)O)C(CCCC)c2cccs2)n1Cc1ccccc1Cl (configuration not stated) | 161 to 163 |
| O=C1CC(c2ccc(Cl)cc2)ON1CC(O)CN1CCOCC1 (configuration not stated) | 121 to 123 |
| O=c1cc[nH]c2c(Sc3nc4ccccc4[nH]3)cccc12 | > 240 |
| CCCCNC(=O)NCc1ccc(Nc2n[nH]c3ncnc(Nc4cccc(Cl)c4)c23)cc1 | 217 to 218 |
| Nc1nnc(-c2ccccc2OC(F)(F)C(F)F)c(N)n1 | 158 to 160 |
| O=C(Nc1cccc(C(=O)O)c1)NC1C(=O)N(CC(=O)N2CCCC2)c2ccccc2N(C2CCCCC2)C1=O (configuration not stated) | 275 to 276 |
| COC(=O)C(=O)c1nccn1Cc1cccs1 | 72.5 to 74.5 |
| CCOc1cc(-c2cc(C(F)(F)F)n3ncc(C(=O)O)c3n2)ccc1C(F)(F)F | 264 |
| C=CCOc1ccc2c(C)cc(=O)oc2c1C(=O)C=Cc1cccc(OC)c1 | 61 to 63 |
| CCCCCCCCC(SCCCC)C(=O)Nc1cccc2cnccc12 (configuration not stated) | 73 to 75 |
| CC(C)c1cn2cccc(CO)c2n1 | 97 to 99 |
| CCOC(=O)C(=CNC1CC1)C(=O)c1c(F)c(OC(F)F)c(F)c(F)c1[N+](=O)[O-] | 105 to 106 |
| COc1ccc(Cc2ccc(NC3=NCCN3)cc2)cc1 | 114 to 116 |
| COc1ccc2[nH]c3c(c2c1)CCN1CN(C)CCC31 (configuration not stated) | 199 to 200 |
| CC(=O)N(c1cccc(Oc2ccccc2)c1)C(C)C(=O)O (configuration not stated) | 145 to 146 |
| Cn1c([N+](=O)[O-])cnc1-c1nnc(N)s1 | 266 to 268 |
| CCCC1CC(=O)c2c(NC(=O)C(=O)O)ccc(C)c21 (configuration not stated) | 157 to 158 |
| CC(C)(C)c1ccc(C(=O)Nc2cn3cc(CO)ccc3n2)cc1 | 249 to 250 |
| CCCCCCOc1ccc(-c2cc(CO)ccc2CO)cc1 | 72.5 to 74 |
| C=Cn1cc(C(=O)OCC)c(=O)c2cc(F)c(Cl)nc21 | 150 to 151 |
| CC1(C)SC(=O)C2OC=C(Br)C=C21 (configuration not stated) | 63 to 72 |
| CC(=O)Oc1ccc(-c2c(CBr)c3ccc(OC(C)=O)cc3oc2=O)c(OC(C)=O)c1 | 171 to 172 |
| Cc1cc(SC2=C(O)C[C@@](CCc3ccc(O)cc3)(C(C)C)OC2=O)c(C(C)C)c2sc(N)nc12 | 232 to 234 |

| Compound | melting point [°C] |
| --- | --- |
| O=C(c1c[nH]c2ncc(Br)nc12)C12CC3CC(CC(C3)C1)C2 | 279 to 280 |
| COCCn1c(SC)nc(-c2ccc(F)cc2)c1-c1ccnc(Nc2ccccc2)c1 | 108 |
| CCCCC/C(=C\C=C\C(=O)O)c1cccc(F)c1 | 84 to 85.5 |
| CCOC(=O)C(CC)Cc1ccc(NC(=O)c2ccc(Cl)cc2)cc1 (configuration not stated) | 119 to 120 |
| CN(C)CCCOc1cc(-c2ncccc2Cl)cc2c(Nc3nccs3)n[nH]c12 | 215 to 217 |
| CCc1nc2cccc(C(=O)OC)c2n1Cc1ccc(-c2ccccc2-c2nc(=O)s[nH]2)cc1 | 203 to 205 |
| C=C1CC2(C)CC(=O)C(C)(C)C12 (configuration not stated) | -23 to -20 |
| COC(=O)c1occc1CN1C(=O)c2ccccc2C1=O | 140 to 143 |
| COc1ccc(N2CCN(c3ccc(Nc4nc(-c5ccccc5)cs4)cc3)CC2)cc1 | 270 |
| ClCc1coc(-c2ccc(Cl)s2)n1 | 90 to 91 |
| O=C(O)Cc1ccc(S(=O)(=O)c2ccc(Cl)cc2)cc1 | 153 to 157 |
| CN(Cc1ccc([N+](=O)[O-])cc1)C(CO)CO | 65 to 66 |
| COc1cc(Nc2nccc(-c3cccc(OCCCN4C(=O)c5ccccc5C4=O)c3)n2)cc(OC)c1OC | 209 |
| Cc1nnc(CNC(=O)CNC(=O)CN)n1-c1ccc(Cl)cc1C(=O)c1ccccc1Cl | 60 to 65 |
| Cc1ccc(S(=O)(=O)N2CCCC(CC(C#N)(c3ccc(F)cc3)c3ccc(F)cc3)C2)cc1 (configuration not stated) | 142 to 143 |
| Cc1ccc(C2COc3c(C)c(C)c(NCc4ccccc4)c(C)c32)nc1 (configuration not stated) | 104 to 105 |
| COCOc1ccc(OCc2ccccc2)c(CBr)c1 | 55 to 57 |
| COc1cccc(Sc2c(O)c3ccc(Cl)cc3[nH]c2=O)c1 | 199 to 200 |
| O=C1NC(=O)C(=Cc2ccc(OCc3cccc(Cl)c3)cc2)S1 | 182 to 183 |
| CC(C)CN1C(=O)[C@@H](CC(=O)O)O[C@H](c2ccccc2OC(C)C)c2cc(Cl)ccc21 (relative stereo) | 146 to 149 |
| CC(O)C1C(=O)N2C(C(=O)OCc3ccccc3)=C(S(=O)c3ccccc3)CC12 (configuration not stated) | 104 to 109 |
| CC(=O)NC[C@H]1CN(c2ccc(-n3cccn3)c(F)c2)C(=O)O1 | 183 to 184 |
| O=C(c1ccccc1)N(CCN1CCC(Nc2nc3ccccc3n2Cc2ccc(F)cc2)CC1)c1nccs1 | 156 |
| Clc1cccc(Nc2ncnc3[nH]c(-c4ccccc4)cc23)c1 | 285 to 286 |

| Compound | melting point [°C] |
| --- | --- |
| CCC(=O)OC1=CC(=O)CC(NC(=O)N(C)C)C1 (configuration not stated) | 69 to 74 |
| Clc1ccc2[nH]c3c(c2c1)CCC1(C3)OCCO1 | 128 to 138 |
| Cc1cccc(C)c1NC(=O)c1ccc(C#N)cc1 | 185 to 187 |
| Cc1cc(N)n(-c2ccc(Cl)c(Cl)c2)n1 | 110 to 112 |
| CN1CCN(C(=O)CN2C(=O)C(NC(=O)OCc3ccccc3)N=C(c3ccccc3)c3ccccc32)CC1 (configuration not stated) | 200 to 202 |
| NC(=O)CNC(=O)c1cccc(-c2ncnc3cc(Cc4cccc(C(F)(F)F)c4)sc23)c1 | 205 to 206 |
| CCCc1cc(COc2cc(CC)nc(C)c2OC)ccc1-c1ccccc1S(=O)(=O)Nc1noc(C)c1C | 63 to 65 |
| COc1ccc(CSc2cnc(O)nc2O)cc1 | 277 |
| CN1CCC(c2c[nH]c3ccc(NS(=O)(=O)c4ccccc4)nc23)CC1 | 148 to 150 |
| COc1ccc(NC(=O)c2ccc(F)c(F)c2)cc1NCc1cccs1 | 187 to 189 |
| CCC1CCCN(C(=O)C2Cc3ccccc3N2c2ccc(=O)n(C)n2)C1 (configuration not stated) | 150 to 154 |
| CCOC(=O)C1=C(N)Nc2ncnc(OC(C)C)c2C1c1ccccc1OC (configuration not stated) | 222 to 223 |
| O=C(O)CCNc1ccc(C(=O)c2ccccc2)cc1[N+](=O)[O-] | 170 to 175 |
| O=C(O)CN1C(=O)C(=Cc2ccc(OCc3ccc(OC(F)(F)F)cc3)c(OCc3ccccc3)c2)SC1=S | 195 to 199 |
| N#Cc1ccsc1N=Cc1ccc([N+](=O)[O-])s1 | 192 to 194 |
| O=C(O)c1cn(-c2cccnc2)cn1 | 265 to 266 |
| CCc1nc(N)nc(N)c1-c1ccccc1Cl | 197 to 198 |
| COc1ccc(C2CCN(C(=O)C(=O)NO)CC2)cc1C=C1CCCC1 | 127 to 128 |
| CCc1cccc(NC(=O)c2cnn(C)c2N)c1 | 168 to 170 |
| OCCc1ccc2c(c1)C(O)c1ccccc1CO2 (configuration not stated) | 135 to 137 |
| CCc1ccc(-c2ccc3c(c2)C=C(C(=O)O)CCS3(=O)=O)cc1 | 260 to 265 |
| Cc1nc2c(OCc3cccs3)cccn2c1CC#N | 155 to 157 |
| COc1ccc(C(=O)Nc2ccc3ccc(Cl)nc3n2)cc1OC | 196 |
| Cc1cc(CCCCCOc2c(C)cc(-c3cn(C)nn3)cc2C)on1 | 117 to 118 |
